# Experimental data published in paper PMC4794603 (Molecules and Cells, 2016).
# Like-named read-outs stand apart in the source and are kept apart here.
# Experiments:
# CYP107W1 = biological target: T1, CYP107W1 (Streptomyces avermitilis, UniProt Q93HJ0); test: co-crystal structure at […] Å; assay type: binding
# T1 sequence (Q93HJ0 1-404): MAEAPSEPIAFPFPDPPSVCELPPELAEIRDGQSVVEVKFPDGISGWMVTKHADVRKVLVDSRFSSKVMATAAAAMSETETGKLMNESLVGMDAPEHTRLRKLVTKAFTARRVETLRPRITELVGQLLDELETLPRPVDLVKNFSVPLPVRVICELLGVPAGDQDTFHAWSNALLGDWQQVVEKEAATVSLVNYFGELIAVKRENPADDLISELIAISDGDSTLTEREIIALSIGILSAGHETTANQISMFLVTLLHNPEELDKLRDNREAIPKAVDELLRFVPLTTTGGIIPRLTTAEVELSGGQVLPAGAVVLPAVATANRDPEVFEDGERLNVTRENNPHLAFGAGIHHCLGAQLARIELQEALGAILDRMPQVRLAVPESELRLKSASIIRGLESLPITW
# CYP107W1 W178G mutant [1] = biological target: T2, CYP107W1 W178G mutant (Streptomyces avermitilis, UniProt Q93HJ0, W178G); test: UV-vis spectral binding titration
# T2 sequence (Q93HJ0 1-404 W178G): T1 sequence (Q93HJ0 1-404)
# CYP107W1 W178G mutant [2] = biological target: T2, CYP107W1 W178G mutant; test: UV-vis spectral binding titration; remark: listed apart in the source
# [3] = tested on: [H][C@@]12OC(=O)C=C[C@@H](C)[C@H](O)[C@@H](C)C(=O)[C@@H](C)[C@H](O)[C@@H](C)C(=O)[C@H](C)[C@H](O)[C@@H](C)CC=CC=C[C@@H](CC)CC[C@@]([H])(O[C@@]3(CC[C@@H](C)[C@@H](C[C@H](C)O)O3)[C@@H]1C)[C@@H]2C; test: purified protein; settings: heme
compound,measurement,setting,value
"CC[C@H]1/C=C\C=C\C[C@@H](C)[C@H](O)[C@@](C)(O)C(=O)[C@@H](C)[C@H](O)[C@@H](C)C(=O)[C@@H](C)[C@H](O)[C@@H](C)/C=C/C(=O)O[C@@H]2[C@H](C)[C@H](CC1)O[C@]1(CC[C@H](C)[C@H](C[C@@H](C)O)O1)[C@H]2C [OliA, oligomycin A]",co-crystal structure at 2.6 Å,CYP107W1,Coordinates and structure factors of CYP107W1-OliA have been deposited in the Protein Data Bank with accession number 4WQ0.
Clc1ccc(COC(Cn2ccnc2)c2ccc(Cl)cc2Cl)cc1 (centres unmarked) [econazole],Kd,CYP107W1 W178G mutant [1],5.3 ± 0.4 µM
Clc1ccc(COC(Cn2ccnc2)c2ccc(Cl)cc2Cl)c(Cl)c1 (centres unmarked) [miconazole],Kd,CYP107W1 W178G mutant [1],3.1 ± 0.3 µM
CC[C@@H]1/C=C/C=C/C[C@H](C)[C@H](O)[C@](C)(O)C(=O)[C@H](C)[C@@H](O)[C@H](C)C(=O)[C@H](C)[C@@H](O)[C@H](C)/C=C/C(=O)O[C@H]2[C@@H](C)[C@@H](CC1)O[C@@]1(CC[C@@H](C)[C@@H](C[C@H](C)O)O1)[C@@H]2C [oligomycin A],Kd,CYP107W1 W178G mutant [2],4.3 ± 0.7 µM
CYP107W1 W178G mutant (Streptomyces avermitilis; W178G),Km,[3],3.4 ± 0.4 µM
